Laboratory results: PMC12349723, “Computationally accelerated identification of P-glycoprotein inhibitors” (PLOS One, 2025)

What was measured:
[1] = tested on: HFL1 (human lung fibroblast) cell line; test: MTT viability assay, inherent toxicity in non-cancerous HFL1 cells; type: cell-based; set-up: Mean % Survival: tested at 15 µM; conditions: for Inherent toxicity to non-cancerous HFL1 cells: 15 µM compound, 48 h, MTT, 20% reduction in viability = maximum acceptable toxicity; for Mean % Survival / % Survival (individual sample): HFL1 cells, compound alone; for Mean % Survival: mean of 8 samples; for % Survival (individual sample): single samples (trials 1-2, samples 1-4)
How it was run: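 HFL1 fibroblasts seeded at 4,000 cells/well on collagen-coated plates in F12K medium, exposed to 15 µM compound for 48 h at 37 °C. MTT reduction read at 570 nm; survival expressed as % of DMSO-treated cells, 8 samples from at least two trials; ≤20% loss deemed acceptable.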

P-gp = molecular target: T1, P-gp (Homo sapiens, UniProt P08183); test: LC-MS/MS intracellular accumulation assay with or without tariquidar (P-gp transport substrate test) in DU145-TXR cells; type: in vitro ADME; conditions: for P-gp transport substrate assessment / Intracellular accumulation (normalized ratio of compound to internal standard), Trial 1, + TQR / Intracellular accumulation (normalized ratio of compound to internal standard), Trial 2, + TQR / Intracellular accumulation (normalized ratio of compound to internal standard), Trial 1, - TQR / Intracellular accumulation (normalized ratio of compound to internal standard), Trial 2, - TQR: DU145-TXR, 2.5 h; for P-gp transport substrate assessment: 5 µM compound with or without 500 nM tariquidar, LC-MS/MS; for Intracellular accumulation (normalized ratio of compound to internal standard), Trial 1, + TQR / Intracellular accumulation (normalized ratio of compound to internal standard), Trial 2, + TQR / Intracellular accumulation (normalized ratio of compound to internal standard), Trial 1, - TQR / Intracellular accumulation (normalized ratio of compound to internal standard), Trial 2, - TQR: 5 µM compound, mean ± SD, triplicate; for Intracellular accumulation (normalized ratio of compound to internal standard), Trial 1, + TQR / Intracellular accumulation (normalized ratio of compound to internal standard), Trial 2, + TQR: with 500 nM tariquidar; for Intracellular accumulation (normalized ratio of compound to internal standard), Trial 1, - TQR / Intracellular accumulation (normalized ratio of compound to internal standard), Trial 2, - TQR: without tariquidar; for P (- TQR vs + TQR), Trial 1 / P (- TQR vs + TQR), Trial 2: Student's T test of the mean; for Significance of accumulation with tariquidar, Trial 1 / Significance of accumulation with tariquidar, Trial 2: significant difference = likely P-gp transport substrate
T1 construct: The MDR, P-gp overexpressing DU145-TXR cells were maintained under positive selection pressure; endogenous in cells; host or cells: DU145-TXR (paclitaxel-resistant sub-line of DU145 human prostate cancer cells)
How it was run: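 Analyte peak area normalised to internal standard and to lysate protein (BSA curve); relative accumulation compared between −/+ TQR by Student's t-test. Daunorubicin served as P-gp substrate positive control.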

T1 sequence (P08183 whole entry): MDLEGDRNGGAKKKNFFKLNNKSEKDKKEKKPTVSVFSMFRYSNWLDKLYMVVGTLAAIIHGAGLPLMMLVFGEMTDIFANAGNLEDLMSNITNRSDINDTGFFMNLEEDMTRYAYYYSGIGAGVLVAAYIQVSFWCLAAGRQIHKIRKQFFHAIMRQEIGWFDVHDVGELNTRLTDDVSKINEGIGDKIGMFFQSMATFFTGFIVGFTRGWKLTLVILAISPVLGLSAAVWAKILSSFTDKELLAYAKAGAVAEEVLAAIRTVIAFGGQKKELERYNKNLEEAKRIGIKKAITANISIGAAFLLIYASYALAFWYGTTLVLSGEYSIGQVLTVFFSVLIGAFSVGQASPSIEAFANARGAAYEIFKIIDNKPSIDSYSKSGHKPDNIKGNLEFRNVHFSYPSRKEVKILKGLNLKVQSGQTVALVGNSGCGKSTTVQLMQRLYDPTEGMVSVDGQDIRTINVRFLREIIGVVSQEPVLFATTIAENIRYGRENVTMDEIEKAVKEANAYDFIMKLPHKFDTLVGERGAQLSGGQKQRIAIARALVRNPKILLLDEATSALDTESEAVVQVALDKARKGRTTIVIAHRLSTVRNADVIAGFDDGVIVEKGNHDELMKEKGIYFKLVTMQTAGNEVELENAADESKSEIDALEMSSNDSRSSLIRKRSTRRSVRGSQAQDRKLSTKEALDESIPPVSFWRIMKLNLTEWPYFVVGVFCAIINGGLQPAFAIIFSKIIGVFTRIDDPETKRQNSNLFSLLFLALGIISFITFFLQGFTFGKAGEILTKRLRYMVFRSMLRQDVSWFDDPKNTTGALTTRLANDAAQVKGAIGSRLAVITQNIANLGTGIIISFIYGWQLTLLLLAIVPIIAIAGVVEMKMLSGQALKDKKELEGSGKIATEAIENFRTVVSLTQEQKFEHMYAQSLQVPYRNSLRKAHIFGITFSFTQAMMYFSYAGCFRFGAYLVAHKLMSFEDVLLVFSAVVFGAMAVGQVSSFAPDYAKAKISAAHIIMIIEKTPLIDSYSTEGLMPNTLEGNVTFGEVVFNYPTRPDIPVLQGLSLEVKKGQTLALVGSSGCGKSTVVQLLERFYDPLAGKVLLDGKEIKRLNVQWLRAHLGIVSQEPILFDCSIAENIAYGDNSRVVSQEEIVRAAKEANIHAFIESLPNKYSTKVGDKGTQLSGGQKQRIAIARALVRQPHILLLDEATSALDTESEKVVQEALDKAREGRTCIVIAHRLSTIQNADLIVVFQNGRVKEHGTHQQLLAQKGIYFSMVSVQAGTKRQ

| Compound | Inherent toxicity to non-cancerous HFL1 cells [1] | Mean % Survival [1] [%] | % Survival (individual sample) [1] [%] | P-gp transport substrate assessment (P-gp) | Intracellular accumulation (normalized ratio of compound to internal standard), Trial 1, + TQR (P-gp) | Intracellular accumulation (normalized ratio of compound to internal standard), Trial 2, + TQR (P-gp) | Intracellular accumulation (normalized ratio of compound to internal standard), Trial 1, - TQR (P-gp) | Intracellular accumulation (normalized ratio of compound to internal standard), Trial 2, - TQR (P-gp) | P (- TQR vs + TQR), Trial 1 (P-gp) | P (- TQR vs + TQR), Trial 2 (P-gp) | Significance of accumulation with tariquidar, Trial 1 (P-gp) | Significance of accumulation with tariquidar, Trial 2 (P-gp) |
| --- | --- | --- | --- | --- | --- | --- | --- | --- | --- | --- | --- | --- |
| Cc1onc(-c2ccccc2)c1-c1nnc(Cn2cnc3ccccc3c2=O)o1 [Compound 111, Cc1onc(c1-c1nnc(Cn2cnc3ccccc3c2=O)o1)-c1ccccc1] | either ‘non-toxic’ or ‘within acceptable limits’ of toxicity | 96.0 | 92 | unlikely to be transport substrates of P-gp | 0.013 ± 0.004 | 0.013 ± 0.001 | 0.012 ± 0.002 | 0.011 ± 0.002 | 0.7 | 0.2 | N.S. (P > 0.05 = not significant (N.S.)) | N.S. (P > 0.05 = not significant (N.S.)) |
| O=C(NCc1cccc(F)c1)c1nnn2c1Sc1c(C(=O)NCc3cccc(F)c3)nnn1CC2 [Compound 122, Fc1cccc(CNC(=O)c2nnn3CCn4nnc(C(=O)NCc5cccc(F)c5)c4Sc23)c1] | either ‘non-toxic’ or ‘within acceptable limits’ of toxicity | 79.7 | – | potential P-gp transport substrates | 0.146 ± 0.018 | 0.209 ± 0.014 | 0.049 ± 0.005 | 0.058 ± 0.018 | 0.0008 | 0.0003 | *** (P < 0.001 = ***) | *** (P < 0.001 = ***) |
| O=C(c1nc(-c2ccccn2)no1)N1CCN(c2nsc3ccccc23)CC1 [Compound 124, O=C(N1CCN(CC1)c1nsc2ccccc12)c1nc(no1)-c1ccccn1] | either ‘non-toxic’ or ‘within acceptable limits’ of toxicity | 84.6 | 89 | potential P-gp transport substrates | 0.061 ± 0.011 | 0.055 ± 0.009 | 0.006 ± 0.001 | 0.007 ± 0.002 | 0.001 | 0.0008 | ** (P < 0.01 = **) | *** (P < 0.001 = ***) |
